# Results published in patent US9278086B2, “Combination therapy and uses thereof for treatment and prevention of parasitic infection and disease” (The Royal Institution for the Advancement of …, priority 2010, dated 2016).
# Marks after values point to notes of the source that are not given here.
# Key:
# Type in all cases: in vivo
# [1] = test system: Plasmodium berghei ANKA; test: Plasmodium berghei ANKA infection (cerebral malaria model) in C57BL/6J mice, parasitemia and survival
# Procedure: FIGS. 8A and 8B show the results of two independent experiments on the effect of cysteamine and artesunate combinations on the progression of Plasmodium berghei ANKA infection (parasitemia). Groups of 5 adult 18-20 g C57BL/6J males and females were infected intravenously with 1×10^6 erythrocytes parasitized with P. berghei ANKA at time “0”. Two hours later, mice were injected i.p with either Artemisinin alone or with Artemisinin/Cysteamine combinations (at the indicated concentrations in mg/kg body weight). In the case of the latter, Artemisinin was injected first in one quadrant, and cysteamine was injected second, 10-15 minutes later in another quadrant. The drug treatment was further repeated at days 1, 2 and 3 post-infection to emulate the standard 4-day test used in anti-malarial drug discovery. Starting at day 5, blood was collected, thin blood smears were prepared, and parasitemia was determined (400 erythrocytes counted, expressed as percentage parasitized erythrocytes). Error bars show standard deviations on the mean; and
# FIGS. 9A and 9B show the results of two independent experiments on the effect of cysteamine and artesunate combinations on the survival of Plasmodium berghei ANKA-infected mice. Infection and drug administration were performed as described above for FIGS. 8A and 8B. Animals were monitored for the appearance and severity of cerebral symptoms (CM phase, shown as rectangle in graph), and moribund animals were euthanized, and time of death was recorded.
# Intravenous infection with Plasmodium berghei ANKA is an accepted mouse model of cerebral malaria (CM) (Hunt, N. H. et al. 2006, Int. J. Parasitol. 36: 569-582). The infection causes the following pathology. First, there is appearance of blood parasitemia, starting at days 3 or 4, which can go up to 10% by day 7-8. Starting at day 5-6, there is emergence of cerebral symptoms caused by permeability of the blood brain barrier, concomitant to trapping of parasitized red cells in the microvasculature and acute pathological host inflammatory response in situ. This cerebral phase quickly progresses from tremors, to paralysis, to coma, and is uniformly lethal in mice by days 8-10. In this model, progress of infection and possibly drug effects may be monitored by a) appearance and intensity of blood parasitemia (between days 5-8), b) appearance of cerebral symptoms, and c) lethality.
# [2] = test system: Plasmodium chabaudi; test: Progression of P. chabaudi infection (10^6 pRBC i.v.) in pantetheinase-sufficient B6 mice
# Procedure: (§1) A/J and C57BL/6 (B6) mice were purchased from the Jackson Laboratories (Bar Harbor, Me.) and were housed at McGill University according to the guidelines of the Canadian Council on Animal Care. An LDH virus-free isolate of P. chabaudi AS was maintained by weekly passage in A/J mice. Mice were infected intravenously into the tail vein (i.v.) with 10^6 or 10^7 pRBC suspended in pyrogen-free saline. Following infection, the percentage of pRBC was determined daily on thin blood smears stained with Dif-Quik™ (Dade Behring, Newark, Del.), as described (Fortin A, et al. (2001) Proc Natl Acad Sci USA 98: 10793-10798).
# (§2) Cysteamine hydrochloride (Sigma, Burlington ON) was prepared in PBS. Chloroquine hydrochloride, artesunate and dihydroartemisinin were provided by Dafra Pharmaceuticals; chloroquine was prepared in PBS, artesunate and DHA were prepared in 5% sodium bicarbonate and diluted in water to appropriate concentrations. All solutions were prepared fresh daily, filter sterilized and injections were performed intra-peritoneally (i.p) or subcutaneously (s.c.) for 4 days or according to treatment regimen. Mice were weighed prior to treatment to determine appropriate doses and injection volumes ranged from 100-400 μL per mouse. In the case of animals treated with two drugs, artemisinin derivatives were administered first (due to the short half life of cysteamine), followed by cysteamine 5-10 minutes later on alternate sides. Untreated control animals were injected with PBS alone.
# To investigate whether the effects on parasite burden over the course of infection would also be observed with a pantetheinase-sufficient mouse strain, a similar experiment was performed using female B6 mice. Groups of mice were infected with 10^6 P. chabaudi pRBC i.v. and treated with PBS, 1 mg/kg or 30 mg/kg of Art, or 1 mg/kg or 30 mg/kg of Art plus 60 mg/kg of Cys for 4 days. […] As in A/J mice, the effect of Cys addition to 1 mg/kg of Art has a clear effect on early parasite replication at day 6 (FIG. 6B). […] B6 mice were able to completely clear parasite burdens and survive the infection, even in the control PBS-treated group.
# [3] = test system: Plasmodium chabaudi; test: Progression, resolution and survival of lethal P. chabaudi infection (10^6 pRBC i.v.) in A/J mice
# Procedure: as §1, §2
# It was investigated if low dose Cys could potentiate standard doses of ART that show therapeutic activity in vivo and concurrently determined possible long-term effects on patent parasitemia, resolution of infection and survival in a lethal infection model. In this protocol, mice were infected with 10^6 pRBC P. chabaudi (i.v.) and treated with Cys (60 mg/kg) and/or ART (0.5, 1, 2, 5 and 10 mg/kg) for 4 days (days 0-3), while blood parasitemia and survival were followed for 22 days. Control animals treated with either PBS or Cys alone (60 mg/kg) developed high parasite burdens, which peaked at day 6, and all mice succumbed to the infection by day 7 (FIGS. 5A and 5C). […] Likewise, although all mice treated with 0.5 mg/kg ART succumbed to the infection early (day 8), mice additionally receiving Cys survived until day 9; moreover, addition of Cys to 1.0 mg/kg ART completely rescued animals from lethality of infection, with 100% survival in this group (FIGS. 5B, 5C).
# [4] = test system: Plasmodium chabaudi; test: 4-day test, P. chabaudi (10^7 pRBC i.v.) in pantetheinase-sufficient C57BL/6 mice, blood parasitemia days 4 and 5; conditions: for Inhibition of parasitemia Day 4 / Inhibition of parasitemia Day 5: days 0-3
# Procedure: as §1, §2
# (§3) Groups with normally distributed data points were compared using parametric unpaired t-tests, while groups with non-Gaussian distributions were compared using non-parametric Mann-Whitney tests. Survival differences were analyzed using the Log-Rank test. […] Standard error of percent inhibition was calculated from individual mice compared to the mean parasitemia level of the control group.
# (§4) The effect of Cys on the potency and efficacy of the anti-malarial artemisinin derivatives was tested. […] Synergy (Tallarida R J (2001) J Pharmacol Exp Ther 298: 865-872) is defined as a total anti-malarial activity (reduction in blood parasitemia compared to untreated controls in a standard 4-day test) of the two compounds administered together being greater than the sum of the independent activities of the two compounds given alone. We tested combinations of Cys and either artesunate (ART) or dihydroartemisinin (DHA), the bioactive form of artemisinin. Pantetheinase-deficient mice were infected with P. chabaudi (10^7 pRBC, i.v.) and treated with Cys (170 mg/kg) and/or sub-optimal doses of ART (0.2 or 0.5 mg/kg) (FIG. 3A) or DHA (0.15 or 0.3 mg/kg) (FIG. 3B) from day 0-3 and parasitemia was monitored on days 4 and 5. […] Potentiation of the anti-malarial activity of ART (0.5 mg/kg) by Cys was also clearly evident in these C57BL/6 mice at both days 4 and 5 post-infection, with combined treatment causing a 65-71% reduction in parasitemia compared to PBS controls, greater than either compound tested alone (13-29%) (TABLE 1).
# [5] = test system: Plasmodium chabaudi; test: 4-day test, P. chabaudi (10^7 pRBC i.v.) in pantetheinase-deficient A/J mice, blood parasitemia days 4 and 5; conditions: for inhibition of parasitemia compared to PBS-treated controls: ART 0.2 mg/kg alone; for effect of addition of Cys on inhibition of parasitemia versus additive effect of the two compounds: Cys 170 mg/kg added to ART (0.2 or 0.5 mg/kg) or DHA (0.15 or 0.3 mg/kg); for Inhibition of parasitemia Day 4 / Inhibition of parasitemia Day 5: days 0-3; for symptoms of disease (ruffled fur, lethargy): mice receiving both Cys and ART/DHA, compared to PBS or only one compound
# Procedure: as §1, §2, §3, §4
# It was subsequently examined whether Cys potentiation of ART was dose dependent. Initially, Cys doses of 60, 100, 140 and 180 mg/kg were tested with a sub-optimal ART dose of 0.2 mg/kg. The drugs were administered from day 0-3 post infection, parasitemia was counted at day 4 and day 5 and the percent inhibition was calculated compared to PBS-treated controls (FIG. 4A). At 0.2 mg/kg, ART alone inhibits parasitemia by ˜20% (day 4) and 40% (day 5) while inhibition by Cys alone was partially dose dependent (varying between 10% and 25%). […] It was also assessed whether Cys could potentiate low doses of artesunate which, given alone, have no significant effect on parasitemia. In this experiment, Cys (170 mg/kg) was administered in combination, or not, with increasing doses of ART (0.05, 0.1, 0.2, 0.4 mg/kg) in the same 4-day experimental protocol.
# [6] = artesunate 0.5 mg/kg + cysteamine 170 mg/kg i.p.
# [7] = A/J mice, artesunate 0.2 mg/kg + cysteamine 170 mg/kg i.p.
# [8] = A/J mice, artesunate 0.2 mg/kg alone
# [9] = A/J mice, artesunate 0.5 mg/kg + cysteamine 170 mg/kg i.p.
# [10] = A/J mice, artesunate 0.5 mg/kg alone
# [11] = A/J mice, DHA 0.15 mg/kg + cysteamine 170 mg/kg i.p.
# [12] = A/J mice, DHA 0.3 mg/kg + cysteamine 170 mg/kg i.p.
compound,measurement,setting,value
C[C@@H]1CCC2[C@@H](C)C(=O)O[C@@H]3O[C@]4(C)CCC1C23OO4 (stereo partly drawn) [Artemisinin],rise and absolute levels of parasitemia (days 6-8) versus Artemisinin alone,"[1]; Artemisinin 5 or 10 mg/kg + Cysteamine i.p., days 0-3",delay in the rise of parasitemia
same,prolongation of survival over Artemisinin alone,[1]; cysteamine added to Artemisinin,1 to 2 days
same,effect of adding cysteamine compared with doubling the dose of Artemisinin,"[1]; two independent experiments (FIG. 8A, 8B)",comparable (FIG. 8A) or superior (FIG. 8B)
"C[C@H]1[C@H](OC(=O)CCC(=O)O)O[C@@H]2O[C@@]3(C)CC[C@H]4[C@H](C)CC[C@@H]1[C@@]24OO3 [Artesunate, artesunate]","outward symptoms of disease (lethargy, ruffled fur)",[2]; 30 mg/kg Art plus Cys 60 mg/kg,did not display any outward symptoms of disease
same,parasite levels,[2]; 30 mg/kg Art plus Cys 60 mg/kg,under 12 % pRBC
same,parasite levels and peak compared to Art administered alone,"[2]; Art 1 or 30 mg/kg + Cys 60 mg/kg, 4 days",reduction in parasite levels and a delay in the peak
same,day until which mice survived,[3]; ART 0.5 mg/kg + Cys 60 mg/kg,9 days
same,day at which all mice succumbed to the infection,[3]; ART 0.5 mg/kg alone,8 days
same,survival,[3]; ART 1.0 mg/kg + Cys 60 mg/kg,100%
same,effect on infection (onset and peak of parasitemia),"[3]; ART alone 0.5-10 mg/kg, dose-dependent",delay in the onset of parasitemia and a reduction of peak parasitemia
same,further reduction in parasitemia at day 6,[3]; Cys 60 mg/kg added to 0.5 mg/kg or 1 mg/kg ART,60-70%
same,peak levels of parasitemia relative to the corresponding dose of ART alone,[3]; Cys 60 mg/kg added to all ART doses tested,reduction of peak levels of parasitemia
same,reduction in parasitemia compared to PBS controls,"[4]; ART 0.5 mg/kg combined with Cys 170 mg/kg, days 4 and 5",65-71%
same,Inhibition of parasitemia Day 4,[4]; [6],71* % PBS control
same,Inhibition of parasitemia Day 5,[4]; [6],65* % PBS control
same,Inhibition of parasitemia Day 4,[4]; artesunate 0.5 mg/kg alone,29 % PBS control
same,Inhibition of parasitemia Day 5,[4]; artesunate 0.5 mg/kg alone,21 % PBS control
same,inhibition of parasitemia compared to PBS-treated controls,"[5]; A/J mice, day 4 (FIG. 4A)",~20%
same,inhibition of parasitemia compared to PBS-treated controls,"[5]; A/J mice, day 5 (FIG. 4A)",40%
same,inhibition of parasitemia replication,"[5]; A/J mice, ART 0.1 and 0.2 mg/kg combined with Cys 170 mg/kg (FIG. 4C)",60-75%
same,inhibition of parasitemia replication,"[5]; A/J mice, ART 0.1 and 0.2 mg/kg used alone (FIG. 4C)",< 10%
same,effect of addition of Cys on inhibition of parasitemia versus additive effect of the two compounds,[5]; A/J mice,synergistic effect
same,potentiation of low-dose artesunate by Cys,"[5]; A/J mice, Cys 170 mg/kg with ART 0.05, 0.1, 0.2, 0.4 mg/kg (FIG. 4C)",≥ 3 fold
same,Inhibition of parasitemia Day 4,[5]; [7],65* % PBS control
same,Inhibition of parasitemia Day 5,[5]; [7],56* % PBS control
same,Inhibition of parasitemia Day 4,[5]; [8],30 % PBS control
same,Inhibition of parasitemia Day 5,[5]; [8],20 % PBS control
same,Inhibition of parasitemia Day 4,[5]; [9],93 % PBS control
same,Inhibition of parasitemia Day 5,[5]; [9],80* % PBS control
same,Inhibition of parasitemia Day 4,[5]; [10],65 % PBS control
same,Inhibition of parasitemia Day 5,[5]; [10],43 % PBS control
same,"symptoms of disease (ruffled fur, lethargy)",[5],fewer symptoms of disease
"C[C@@H]1CCC2[C@@H](C)[C@H](O)O[C@@H]3O[C@]4(C)CCC1C23OO4 (stereo partly drawn) [DHA, dihydroartemisinin]",effect of addition of Cys on inhibition of parasitemia versus additive effect of the two compounds,[5]; A/J mice,synergistic effect
same,Inhibition of parasitemia Day 4,[5]; [11],56* % PBS control
same,Inhibition of parasitemia Day 5,[5]; [11],46* % PBS control
same,Inhibition of parasitemia Day 4,"[5]; A/J mice, DHA 0.15 mg/kg alone",22 % PBS control
same,Inhibition of parasitemia Day 5,"[5]; A/J mice, DHA 0.15 mg/kg alone",13 % PBS control
same,Inhibition of parasitemia Day 4,[5]; [12],80 % PBS control
same,Inhibition of parasitemia Day 5,[5]; [12],71* % PBS control
same,Inhibition of parasitemia Day 4,"[5]; A/J mice, DHA 0.3 mg/kg alone",50 % PBS control
same,Inhibition of parasitemia Day 5,"[5]; A/J mice, DHA 0.3 mg/kg alone",40 % PBS control
same,"symptoms of disease (ruffled fur, lethargy)",[5],fewer symptoms of disease
